Results as given in patent US12559529B2, “NPY2 receptor agonists” (Boehringer Ingelheim International GmbH, priority 2019, dated 2026).

Tests used:
[1] = biological target: T1, Human Neuropeptide Y2 Receptor (Homo sapiens, UniProt P49146); test: Radioligand binding competition assay (RLB); details: Table 3; human 125I-PYY (1-36) 0.02 nM, Y2 receptor membranes; read-out: Ki
T1 construct: purchased CHEMICON HTS066M
T1 sequence (P49146 1-381): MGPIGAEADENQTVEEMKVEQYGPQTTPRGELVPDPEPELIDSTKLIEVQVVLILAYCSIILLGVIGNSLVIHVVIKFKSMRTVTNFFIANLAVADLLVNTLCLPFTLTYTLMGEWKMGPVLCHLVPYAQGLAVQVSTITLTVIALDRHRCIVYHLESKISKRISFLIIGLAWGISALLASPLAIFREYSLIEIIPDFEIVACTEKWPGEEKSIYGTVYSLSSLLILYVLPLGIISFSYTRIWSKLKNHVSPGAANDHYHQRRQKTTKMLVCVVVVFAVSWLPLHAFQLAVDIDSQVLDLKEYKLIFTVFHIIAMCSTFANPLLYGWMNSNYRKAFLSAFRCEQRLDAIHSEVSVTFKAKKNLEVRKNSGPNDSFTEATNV
Method in brief: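 IC50 values come from nonlinear regression of sigmoidal dose-response curves of filter-bound radioactivity. Peptides competed with radioligand at human Y2 receptor membranes (0.5 μg protein/well) for 2 h at room temperature in pH 7.4 HEPES buffer containing Mg2+, Ca2+ and 0.2% ovalbumin.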

normal NMRI mice = test: Effect on acute food intake in normal NMRI mice; assay type: in vivo; details: male NMRI mice, 10 nmol/kg subcutaneously once
Protocol: Male NMRI mice were obtained from Charles River (Charles River, Research Models & Services Germany GmbH) or from Jan Vier (Jan Vier Labs, France) at 5 weeks of age. […] Room temperature was controlled to 21° C.±1° C., with 60%+20% humidity.
Animals were transferred 5-7 days before the start of the study to a real-time food intake monitoring system, HM-2 system (MBRose, Denmark), to allow acclimatization to experimental conditions. As the animals were uniquely identified with microchips, each individual animal was identified by its microchip upon entry and exit from the food channel. Randomization of the mice for each study group (n=7-8) was based on body weight measured the day before the start of the study. A vehicle-treated (50 mM phosphate buffer pH7 with 5% Mannitol) group was included in each experiment. Six hours before the start of the night phase animals were fasted. One hour before the dark phase animals were dosed once subcutaneously (10 nmol/kg) with test peptide. […] The food intake of the treated groups was normalized (in %) to the average food intake of the group receiving vehicle (Table 7). Statistical significance was evaluated using One-way analysis of variance with Turkey's multiple comparison test. P<0.05 was considered statistically significant.

Which results are given for CC(C)CC(=O)N[C@@H](C)C(=O)N1CCC[C@H]1C(=O)N[C@@H](CCC(=O)O)C(=O)N[C@@H](CCCCNC(=O)COCCOCCNC(=O)COCCOCCNC(=O)CC[C@H](NC(=O)CCCCCCCCCCCCCCCCC(=O)O)C(=O)O)C(=O)N1CCC[C@H]1C(=O)N[C@@H](CCC(=O)O)C(=O)N[C@@H](CCC(=O)O)C(=O)N[C@@H](CC(=O)O)C(=O)N[C@@H](C)C(=O)N[C@@H](CO)C(=O)N1CCC[C@H]1C(=O)N[C@@H](CCC(=O)O)C(=O)N[C@@H](CCC(=O)O)C(=O)N[C@@H](CC(C)C)C(=O)N[C@@H](CCC(N)=O)C(=O)N[C@@H](CCCCN)C(=O)N[C@@H](Cc1ccc(O)cc1)C(=O)N[C@@H](Cc1ccc(O)cc1)C(=O)N[C@H](C(=O)N[C@@H](CO)C(=O)N[C@@H](CC(C)C)C(=O)N[C@@H](CCCNC(=N)N)C(=O)N[C@@H](Cc1c[nH]cn1)C(=O)N[C@@H](Cc1ccc(O)cc1)C(=O)N[C@@H](Cc1ccc(O)cc1)C(=O)N[C@@H](CC(N)=O)C(=O)N[C@@H](Cc1c[nH]c2ccccc12)C(=O)N[C@@H](CC(C)C)C(=O)N[C@H](C(=O)N[C@@H](CCCNC(=N)N)C(=O)N[C@@H](CCC(N)=O)C(=O)N[C@@H](CCCNC(=N)N)C(=O)N[C@@H](Cc1ccc(O)cc1)C(N)=O)[C@@H](C)O)C(C)C [Compound 21, N{alpha-4}-(3-methylbutanoyl)-N{epsilon-7}-[2-(2-{2-[2-(2-{2-[(4S)-4-carboxy-4-(17-carboxyheptadecanamido)butanamido]ethoxy}ethoxy)acetamido]ethoxy}ethoxy)acetamido]-[4A,7K,9E,18Q,19K,22V,28Y,30W,31L]hPYY (4-36)]?
Ki [1]: 1.52 nM; Acute Food Intake 24 h [% vehicle] (normal NMRI mice): 89 % vehicle

How did the Ki [1] turn out when CC(C)CC(=O)N[C@@H](C)C(=O)N1CCC[C@H]1C(=O)N[C@@H](CCC(=O)O)C(=O)N[C@@H](CCCCNC(=O)COCCOCCNC(=O)COCCOCCNC(=O)CC[C@H](NC(=O)CCCCCCCCCCCCCCCCC(=O)O)C(=O)O)C(=O)N1CCC[C@H]1C(=O)N[C@@H](CCC(=O)O)C(=O)N[C@@H](CCC(=O)O)C(=O)N1CCC[C@H]1C(=O)N[C@@H](C)C(=O)N[C@@H](CO)C(=O)N1CCC[C@H]1C(=O)N[C@@H](CCC(=O)O)C(=O)N[C@@H](CCC(=O)O)C(=O)N[C@@H](CC(C)C)C(=O)N[C@@H](CCC(N)=O)C(=O)N[C@@H](CCCNC(=N)N)C(=O)N[C@@H](Cc1ccc(O)cc1)C(=O)N[C@@H](Cc1ccc(O)cc1)C(=O)N[C@H](C(=O)N[C@@H](CCC(=O)O)C(=O)N[C@@H](CC(C)C)C(=O)N[C@@H](CCCNC(=N)N)C(=O)N[C@@H](Cc1c[nH]cn1)C(=O)N[C@@H](Cc1ccc(O)cc1)C(=O)N[C@@H](Cc1ccc(O)cc1)C(=O)N[C@@H](CC(N)=O)C(=O)N[C@@H](Cc1c[nH]c2ccccc12)C(=O)N[C@@H](CC(C)C)C(=O)N[C@H](C(=O)N[C@@H](CCCNC(=N)N)C(=O)N[C@@H](CCC(N)=O)C(=O)N[C@@H](CCCNC(=N)N)C(=O)N[C@@H](Cc1ccc(O)cc1)C(N)=O)[C@@H](C)O)C(C)C [Compound 33, N{alpha-4}-(3-methylbutanoyl)-N{epsilon-7}-[2-(2-{2-[2-(2-{2-[(4S)-4-carboxy-4-(17-carboxyheptadecanamido)butanamido]ethoxy}ethoxy)acetamido]ethoxy}ethoxy)acetamido]-[4A,7K,9E,11P,18Q,22V,23E,28Y,30W,31L]hPYY (4-36)] was run?
The Ki was 0.45 nM.

And the “Acute Food Intake 24 h [% vehicle]” value (normal NMRI mice)?
Its value is 54 % vehicle.

With CC(C)CC(=O)N[C@@H](C)C(=O)N1CCC[C@H]1C(=O)N[C@@H](CCC(=O)O)C(=O)N[C@@H](CCCCNC(=O)COCCOCCNC(=O)COCCOCCNC(=O)CC[C@H](NC(=O)CCCCCCCCCCCCCCCCC(=O)O)C(=O)O)C(=O)N1CCC[C@H]1C(=O)N[C@@H](CCC(=O)O)C(=O)N[C@@H](CCC(=O)O)C(=O)N[C@@H](CC(=O)O)C(=O)N[C@@H](C)C(=O)N[C@@H](CO)C(=O)N1CCC[C@H]1C(=O)N[C@@H](CCC(=O)O)C(=O)N[C@@H](CCC(=O)O)C(=O)N[C@@H](CC(C)C)C(=O)N[C@@H](CCC(N)=O)C(=O)N[C@@H](CCC(N)=O)C(=O)N[C@@H](Cc1ccc(O)cc1)C(=O)N[C@@H](Cc1ccc(O)cc1)C(=O)N[C@H](C(=O)N[C@@H](CCC(=O)O)C(=O)N[C@@H](CC(C)C)C(=O)N[C@@H](CCCNC(=N)N)C(=O)N[C@@H](Cc1c[nH]cn1)C(=O)N[C@@H](Cc1ccc(O)cc1)C(=O)N[C@@H](Cc1ccc(O)cc1)C(=O)N[C@@H](CC(N)=O)C(=O)N[C@@H](Cc1c[nH]c2ccccc12)C(=O)N[C@@H](CC(C)C)C(=O)N[C@H](C(=O)N[C@@H](CCCNC(=N)N)C(=O)N[C@@H](CCC(N)=O)C(=O)N[C@@H](CCCNC(=N)N)C(=O)N[C@@H](Cc1ccc(O)cc1)C(N)=O)[C@@H](C)O)C(C)C [Compound 49, N{alpha-4}-(3-methylbutanoyl)-N{epsilon-7}-[2-(2-{2-[2-(2-{2-[(4S)-4-carboxy-4-(17-carboxyheptadecanamido)butanamido]ethoxy}ethoxy)acetamido]ethoxy}ethoxy)acetamido]-[4A,7K,9E,18Q,19Q,22V,23E,28Y,30W,31L]hPYY (4-36)] as the compound, how does the Ki [1] read?
The Ki was 0.89 nM.

What about the “Acute Food Intake 24 h [% vehicle]” value (normal NMRI mice) of the same compound?
Its value is 60 % vehicle.

With CC(C)CC(=O)N[C@@H](C)C(=O)N1CCC[C@H]1C(=O)N[C@@H](CCC(=O)O)C(=O)N[C@@H](CCCCNC(=O)COCCOCCNC(=O)COCCOCCNC(=O)CC[C@H](NC(=O)CCCCCCCCCCCCCCCCC(=O)O)C(=O)O)C(=O)N1CCC[C@H]1C(=O)N[C@@H](CCC(=O)O)C(=O)N[C@@H](C)C(=O)N[C@@H](CC(=O)O)C(=O)N[C@@H](C)C(=O)N[C@@H](CCC(=O)O)C(=O)N1CCC[C@H]1C(=O)N[C@@H](CCC(=O)O)C(=O)N[C@@H](CCC(=O)O)C(=O)N[C@@H](CC(C)C)C(=O)N[C@@H](CCC(N)=O)C(=O)N[C@@H](CCCNC(=N)N)C(=O)N[C@@H](Cc1ccc(O)cc1)C(=O)N[C@@H](Cc1ccc(O)cc1)C(=O)N[C@H](C(=O)N[C@@H](CO)C(=O)N[C@@H](CC(C)C)C(=O)N[C@@H](CCCNC(=N)N)C(=O)N[C@@H](Cc1c[nH]cn1)C(=O)N[C@@H](Cc1ccc(O)cc1)C(=O)N[C@@H](Cc1ccc(O)cc1)C(=O)N[C@@H](CC(N)=O)C(=O)N[C@@H](Cc1c[nH]c2ccccc12)C(=O)N[C@@H](CC(C)C)C(=O)N[C@H](C(=O)N[C@@H](CCCNC(=N)N)C(=O)N[C@@H](CCC(N)=O)C(=O)N[C@@H](CCCNC(=N)N)C(=O)N[C@@H](Cc1ccc(O)cc1)C(N)=O)[C@@H](C)O)C(C)C [Compound 56, N{alpha-4}-(3-methylbutanoyl)-N{epsilon-7}-[2-(2-{2-[2-(2-{2-[(4S)-4-carboxy-4-(17-carboxyheptadecanamido)butanamido]ethoxy}ethoxy)acetamido]ethoxy}ethoxy)acetamido]-[4A,7K,9E,10A,13E,18Q,22V,28Y,30W,31L]hPYY (4-36)] as the compound, how does the Ki [1] read?
Its Ki is 1.26 nM.

And the “Acute Food Intake 24 h [% vehicle]” value (normal NMRI mice)?
Its value is 53 % vehicle.
